Assay results reported in ChEMBL document CHEMBL5230117, “Chalcones: Unearthing their therapeutic possibility as monoamine oxidase B inhibitors” (Eur J Med Chem, 2020).
Values belong to the compound of their own block, whether it stands above or below them.

Assays:
[1] = molecular target: T1, Amine oxidase [flavin-containing] B (Homo sapiens, UniProt P27338); assay: Binding affinity to human MAO-B using kynuramine as substrate incubated for 30 mins by absorbance based assay
T1 sequence (P27338 whole entry): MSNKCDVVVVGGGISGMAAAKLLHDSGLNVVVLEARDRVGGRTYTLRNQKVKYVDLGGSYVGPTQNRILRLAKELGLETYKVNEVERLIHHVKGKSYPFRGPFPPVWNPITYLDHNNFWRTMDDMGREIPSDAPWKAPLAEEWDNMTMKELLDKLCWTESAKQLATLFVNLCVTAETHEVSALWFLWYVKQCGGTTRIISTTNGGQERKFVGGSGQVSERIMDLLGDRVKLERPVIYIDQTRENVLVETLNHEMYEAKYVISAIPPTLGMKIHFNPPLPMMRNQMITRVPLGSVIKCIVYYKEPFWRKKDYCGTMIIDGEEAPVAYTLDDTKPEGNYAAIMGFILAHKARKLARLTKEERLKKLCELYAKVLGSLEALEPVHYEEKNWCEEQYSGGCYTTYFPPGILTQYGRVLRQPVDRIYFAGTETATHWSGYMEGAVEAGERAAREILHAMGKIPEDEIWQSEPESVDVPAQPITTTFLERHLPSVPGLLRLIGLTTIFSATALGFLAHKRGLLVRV

[2] = molecular target: T1, Amine oxidase [flavin-containing] B; assay: Binding affinity to human MAO-B using p-tyramine as substrate incubated for 15 mins by amplex red dye based microplate assay
Homo sapiens [3] = species on record: Homo sapiens; assay: Selectivity index, ratio of IC50 for human MAO-A to IC50 for human MAO-B
[4] = molecular target: T1, Amine oxidase [flavin-containing] B; assay: Inhibition of human MAO-B using kynuramine as substrate incubated for 30 mins by fluorescence based assay; details: 0.5 h
[5] = molecular target: T1, Amine oxidase [flavin-containing] B; assay: Inhibition of human MAO-B using p-tyramine as substrate by fluorimetric based assay
[6] = molecular target: T2, Amine oxidase [flavin-containing] A (Homo sapiens, UniProt P21397); assay: Inhibition of human MAO-A using kynuramine as substrate incubated for 20 mins by fluorescence based assay relative to control
T2 sequence (P21397 whole entry): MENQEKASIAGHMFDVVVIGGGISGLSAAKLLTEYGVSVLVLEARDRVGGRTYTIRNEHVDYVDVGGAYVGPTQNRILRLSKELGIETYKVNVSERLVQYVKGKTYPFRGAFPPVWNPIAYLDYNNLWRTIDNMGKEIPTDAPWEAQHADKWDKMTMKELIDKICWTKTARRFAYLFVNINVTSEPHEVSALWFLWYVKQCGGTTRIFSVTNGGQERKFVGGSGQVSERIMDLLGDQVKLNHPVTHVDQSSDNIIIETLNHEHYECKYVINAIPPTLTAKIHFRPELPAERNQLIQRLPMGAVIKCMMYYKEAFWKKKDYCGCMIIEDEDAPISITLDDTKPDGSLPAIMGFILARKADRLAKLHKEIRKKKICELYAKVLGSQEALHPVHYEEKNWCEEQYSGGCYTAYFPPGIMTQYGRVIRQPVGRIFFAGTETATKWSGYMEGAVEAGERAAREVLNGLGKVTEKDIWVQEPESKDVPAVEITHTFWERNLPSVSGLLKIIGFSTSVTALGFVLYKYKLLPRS

[7] = molecular target: T1, Amine oxidase [flavin-containing] B; assay: Inhibition of human MAO-B using kynuramine as substrate incubated for 20 mins by fluorescence based assay relative to control
Homo sapiens [8] = species on record: Homo sapiens; assay: Selectivity index, ratio of IC50 for human MAO-A to IC50 for human MAO-B by fluorescence based assay
[9] = molecular target: T1, Amine oxidase [flavin-containing] B; assay: Inhibition of human MAO-B using benzylamine as substrate
[10] = molecular target: T2, Amine oxidase [flavin-containing] A; assay: Inhibition of human MAO-A using kynuramine as substrate incubated for 10 mins by continuous spectrophotometric method

Ki [1]: 300 nM
Structure (SMILES): COC(=O)c1ccc(/C=C/C(=O)c2ccco2)cc1

inhibition (INH) [4]: < 75%
Structure (SMILES): COc1ccc(/C=C/C(=O)c2ccc(Cl)cc2)cc1

Ratio IC50 (Homo sapiens [3]): > 120
IC50 [9]: 86 nM
IC50 [10]: > 10000 nM
Structure (SMILES): CC/C(C)=N/Oc1ccc(C(=O)/C=C/c2ccccc2)cc1

inhibition (INH) [4]: < 75%
Structure (SMILES): COc1ccc(C(=O)/C=C/c2ccc(N(C)C)cc2)cc1

Ki [2]: 10 nM
Ratio IC50 (Homo sapiens [3]): 120
Structure (SMILES): O=C(/C=C/c1ccc(Br)cc1)c1c[nH]c2ccccc12

Further lines, the compound ahead of its results:

Structure (SMILES): O=C(/C=C/c1csc2ccccc12)c1ccco1
Ki [2]: 72 nM
Ratio IC50 (Homo sapiens [3]): 12.6

Structure (SMILES): COc1cc2c(Nc3ccc(C(=O)/C=C/c4nc(C)c(C)nc4C)cc3)ncnc2c(OC)c1OC
IC50 [5]: 2600 nM

Structure (SMILES): COc1cc(O)ccc1C(=O)/C=C/c1ccc(O)cc1
IC50 [6]: 10100 nM
IC50 [7]: 380 nM
Ratio IC50 (Homo sapiens [8]): 9.9

Structure (SMILES): CC(C)=CCC/C(C)=C/Cc1c(O)ccc(C(=O)/C=C/c2ccc(O)cc2)c1O [XANTHOANGELOL]
IC50 [6]: > 40000 nM
IC50 [7]: 13200 nM
Ratio IC50 (Homo sapiens [8]): > 3.03

Structure (SMILES): O=C(/C=C/c1ccc(O)c(O)c1O)c1ccco1
Ki [1]: 3550 nM

Structure (SMILES): CC(C)=CCc1cc(C(=O)/C=C/c2ccc(O)c(O)c2)c(O)cc1O [BROUSSOCHALCONE A]
IC50 [6]: 720 nM
IC50 [7]: 7020 nM
Ratio IC50 (Homo sapiens [8]): 0.1

Structure (SMILES): O=C(/C=C/C=C/c1ccccc1)c1ccco1
Ki [2]: 4.1 nM
Ratio IC50 (Homo sapiens [3]): 172

Structure (SMILES): O=C(/C=C/c1ccc(Cl)cc1Cl)c1ccco1
Ki [1]: 850 nM
